Results from patent US9642854B2, “Flavanoid compounds and process for preparation thereof” (Council of Scientific & Industrial Research, priority 2009, dated 2017).
Values after ≈ are worked out from the molar mass of the structure shown. Where two headings read alike, the source gives them in different places.

Legend:
H. pylori [1] = assay: Anti H. pylori screening by disc diffusion susceptibility assay; type: cell-based, Helicobacter pylori; details: for Inhibition zone diameter (score): 100 and 200 mg/disc (so in the source); for Inhibition zone diameter (score) / zone of inhibition at 100 µg/disc: 72 h; for zone of inhibition at 100 µg/disc: Helicobacter pylori, 100 and 200 μg/disc, majority of the strains, read-out: Activity class by inhibition zone diameter
Procedure: The discs were impregnated with […] of each of the compounds, dissolved either in ethanol or DMSO, and the zone of inhibition was measured after 72 h of growth under microaerophilic conditions at 37° C. Inhibition zone diameter ranging 10-20 mm was given a score of ^+, 20-30 mm as ^++ and that of >30 mm as ^+++, as obtained employing dose range of […]/disc. The detailed structural information of the molecules is provided under ‘Description of the Compounds’.
Methods and protocols for the determination of inhibition zone diameter are as stated under Experiment 1, and that of MIC values by microbroth dilution assay as in Experiment 3. ‘Nil’ means zone of inhibition below 10 mm.
The anti H. pylori activity of all 16 flavonoid molecules, 2 naturally isolated and 14 synthetic derivatives, was screened by disc diffusion sensitivity assay employing 2 clinical strains HP001 and HP002, and three standard strains ATCC® 700392, 43504 and 49503. A 0.5 mL inoculum (10^8 CFU/mL) for each bacterial strain tested was flooded on freshly prepared Brain Heart Infusion (BHI) agar plates supplemented with 7% FCS, 0.5% IsoVitalex and 0.0025% DENT® and the discs (5 mm diameter) containing different compounds or antibiotics (dissolved either in ethanol or DMSO) were placed on the agar surface. After incubation for 3 days in a microaerophilic atmosphere at 37° C., the diameter of the zone of inhibition was measured (Glupczynsky, 1996; McNulty et al., 2002).

H. pylori [2] = assay: Anti H. pylori spectrum (MIC) by agar dilution method; type: cell-based, Helicobacter pylori; details: for MIC / MIC50: Helicobacter pylori; for MIC50: MIC against 50% of the strains of the panel, read-out: MIC50
Procedure: MIC was determined using agar dilution assay following the CLSI® guidelines. Six clinical isolates and four standard strains were used for this study. Five microlitre of freshly grown 3-day old culture (˜1×10^8 CFU/mL) was streaked in plates containing 2-fold serial dilution of the compounds ranging […], and incubated under microaerophilic condition at 37° C. After 72 h, the plates were inspected visually for absence of growth to assess the MIC values. The experiment was performed in duplicates. MIC50 is defined as the dose (μg/ml) required for killing 50% of the strains.
Plates contained two-fold serial dilutions of the compounds ranging from […]. Five microlitres of 3-day old freshly grown H. pylori culture (^˜10^8 CFU/mL) was inoculated onto drug-containing BHI agar plates supplemented with 7% FCS, 0.5% IsoVitalex and 0.0025% DENT®, which were then incubated for 3 days under microaerophilic condition at 37° C.

[3] = 72 h, panel of 6 clinical isolates and 4 standard strains, read-out: MIC Range
[4] = clinical strain HP001, read-out: MIC
[5] = clinical strain HP002, read-out: MIC
[6] = clinical strain HP003, read-out: MIC
[7] = clinical strain HP004, read-out: MIC
[8] = clinical strain HP005, read-out: MIC
[9] = clinical strain HP006, read-out: MIC
[10] = standard strain 43504, read-out: MIC
[11] = standard strain 43629, read-out: MIC
[12] = standard strain 49503, read-out: MIC
[13] = standard strain 700392, read-out: MIC
[14] = panel of 6 clinical isolates and 4 standard strains

Structure (SMILES)	MIC (H. pylori [2]; [3])	MIC50 (H. pylori [2])	MIC (H. pylori [2]; [4])	MIC (H. pylori [2]; [5])	MIC (H. pylori [2]; [6])	MIC (H. pylori [2]; [7])	MIC (H. pylori [2]; [8])	MIC (H. pylori [2]; [9])	MIC (H. pylori [2]; [10])	MIC (H. pylori [2]; [11])	MIC (H. pylori [2]; [12])	MIC (H. pylori [2]; [13])	Inhibition zone diameter (score) (H. pylori [1]; ATCC standard strain 43504)	Inhibition zone diameter (score) (H. pylori [1]; ATCC standard strain 49503)	Inhibition zone diameter (score) (H. pylori [1]; ATCC standard strain 700392)	Inhibition zone diameter (score) (H. pylori [1]; clinical strain HP001)	Inhibition zone diameter (score) (H. pylori [1]; clinical strain HP002)	MIC50 (H. pylori [2]; 72 h)	zone of inhibition at 100 µg/disc (H. pylori [1])	further results
CC1(C)S[C@@H]2[C@H](NC(=O)[C@H](N)c3ccc(O)cc3)C(=O)N2[C@H]1C(=O)O [Amoxicillin, reference compound]	0.016 to 0.0625 µg/mL (≈ 0.0438 to 0.171 µM)	0.032 µg/mL (≈ 0.0876 µM)	0.032 µg/mL (≈ 0.0876 µM)	0.032 µg/mL (≈ 0.0876 µM)	0.016 µg/mL (≈ 0.0438 µM)	0.016 µg/mL (≈ 0.0438 µM)	0.016 µg/mL (≈ 0.0438 µM)	0.016 µg/mL (≈ 0.0438 µM)	0.0625 µg/mL (≈ 0.171 µM)	0.032 µg/mL (≈ 0.0876 µM)	0.032 µg/mL (≈ 0.0876 µM)	0.0625 µg/mL (≈ 0.171 µM)								inhibition zone diameter (H. pylori [1]; clinical strains, 0.16 mg/disc): 10-16 mm; inhibition zone diameter (H. pylori [1]; standard strains, 0.5-1.0 mg/disc): 13-15 mm
O=c1cc(-c2ccccc2)oc2cc(OCCCCCCN3CCOCC3)cc(O)c12 [CHM-1, 5-Hydroxy-7-(6-morpholin-4-yl-hexyloxy)-2-phenyl-chromen-4-one]	6.25 to 25 µg/mL (≈ 14.8 to 59 µM)	25 µg/mL (≈ 59 µM)	25 µg/mL (≈ 59 µM)	25 µg/mL (≈ 59 µM)	< 12.5 µg/mL	< 12.5 µg/mL	< 12.5 µg/mL	< 12.5 µg/mL	25 µg/mL (≈ 59 µM)	25 µg/mL (≈ 59 µM)	25 µg/mL (≈ 59 µM)	25 µg/mL (≈ 59 µM)	Nil (‘Nil’ means zone of inhibition below 10 mm)	+ (Inhibition zone diameter ranging 10-20 mm was given a score of ^+)	+ (Inhibition zone diameter ranging 10-20 mm was given a score of ^+)	+ (Inhibition zone diameter ranging 10-20 mm was given a score of ^+)	+ (Inhibition zone diameter ranging 10-20 mm was given a score of ^+)	~25 µg/mL (≈ 59 µM)		
O=c1cc(-c2ccccc2)oc2cc(OCCCCN3CCOCC3)cc(O)c12 [CHM-3, 5-Hydroxy-7-(4-morpholin-4-yl-butoxy)-2-phenyl-chromen-4-one]	50 to 100 µg/mL (≈ 126 to 253 µM)	50 µg/mL (≈ 126 µM)	50 µg/mL (≈ 126 µM)	50 µg/mL (≈ 126 µM)	100 µg/mL (≈ 253 µM)	100 µg/mL (≈ 253 µM)	100 µg/mL (≈ 253 µM)	100 µg/mL (≈ 253 µM)	50 µg/mL (≈ 126 µM)	100 µg/mL (≈ 253 µM)	50 µg/mL (≈ 126 µM)	50 µg/mL (≈ 126 µM)	+ (Inhibition zone diameter ranging 10-20 mm was given a score of ^+)	++ (20-30 mm as ^++)	+ (Inhibition zone diameter ranging 10-20 mm was given a score of ^+)	++ (20-30 mm as ^++)	++ (20-30 mm as ^++)	50 µg/mL (≈ 126 µM)	20 to 30 mm	MIC Range (H. pylori [2]; [14]): 50 to 100 µg/mL
CN(C)CCCOc1cc(O)c2c(=O)cc(-c3ccccc3)oc2c1 [CHN-2, 7-(3-Dimethylamino-propoxy)-5-hydroxy-2-phenyl-chromen-4-one]	6.25 to 25 µg/mL (≈ 18.4 to 73.7 µM)	25 µg/mL (≈ 73.7 µM)	25 µg/mL (≈ 73.7 µM)	25 µg/mL (≈ 73.7 µM)	12.5 µg/mL (≈ 36.8 µM)	12.5 µg/mL (≈ 36.8 µM)	25 µg/mL (≈ 73.7 µM)	25 µg/mL (≈ 73.7 µM)	50 µg/mL (≈ 147 µM)	12.5 µg/mL (≈ 36.8 µM)	25 µg/mL (≈ 73.7 µM)	50 µg/mL (≈ 147 µM)	++ (20-30 mm as ^++)	++ (20-30 mm as ^++)	+ (Inhibition zone diameter ranging 10-20 mm was given a score of ^+)	++ (20-30 mm as ^++)	++ (20-30 mm as ^++)	~25 µg/mL (≈ 73.7 µM)	20 to 30 mm	MIC Range (H. pylori [2]; [14]): 12.5 to 50 µg/mL
CN(C)CCCCOc1cc(O)c2c(=O)cc(-c3ccccc3)oc2c1 [CHN-3, 7-(4-Dimethylamino-butoxy)-5-hydroxy-2-phenyl-chromen-4-one]	6.25 to 25 µg/mL (≈ 17.7 to 70.7 µM)	25 µg/mL (≈ 70.7 µM)	25 µg/mL (≈ 70.7 µM)	25 µg/mL (≈ 70.7 µM)	< 12.5 µg/mL	< 12.5 µg/mL	< 12.5 µg/mL	< 12.5 µg/mL	25 µg/mL (≈ 70.7 µM)	25 µg/mL (≈ 70.7 µM)	25 µg/mL (≈ 70.7 µM)	25 µg/mL (≈ 70.7 µM)	+ (Inhibition zone diameter ranging 10-20 mm was given a score of ^+)	++ (20-30 mm as ^++)	+ (Inhibition zone diameter ranging 10-20 mm was given a score of ^+)	++ (20-30 mm as ^++)	++ (20-30 mm as ^++)	~25 µg/mL (≈ 70.7 µM)	20 to 30 mm	
O=c1cc(-c2ccccc2)oc2cc(OCCCN3CCCCC3)cc(O)c12 [CPP-2, 5-Hydroxy-2-phenyl-7-(3-piperidin-1-yl-propoxy)-chromen-4-one]	6.25 to 100 µg/mL (≈ 16.5 to 264 µM)	12.5 µg/mL (≈ 32.9 µM)	25 µg/mL (≈ 65.9 µM)	25 µg/mL (≈ 65.9 µM)	< 12.5 µg/mL	< 12.5 µg/mL	< 12.5 µg/mL	< 12.5 µg/mL	12.5 µg/mL (≈ 32.9 µM)	100 µg/mL (≈ 264 µM)	25 µg/mL (≈ 65.9 µM)	25 µg/mL (≈ 65.9 µM)	+ (Inhibition zone diameter ranging 10-20 mm was given a score of ^+)	+ (Inhibition zone diameter ranging 10-20 mm was given a score of ^+)	+ (Inhibition zone diameter ranging 10-20 mm was given a score of ^+)	+ (Inhibition zone diameter ranging 10-20 mm was given a score of ^+)	+ (Inhibition zone diameter ranging 10-20 mm was given a score of ^+)	~12.5 µg/mL (≈ 32.9 µM)		
Cc1ncc([N+](=O)[O-])n1CCO [Metronidazole, reference compound]		50 µg/mL (≈ 292 µM)		> 100 µg/mL	100 µg/mL (≈ 584 µM)	100 µg/mL (≈ 584 µM)	25 µg/mL (≈ 146 µM)	25 µg/mL (≈ 146 µM)	50 µg/mL (≈ 292 µM)	1.56 µg/mL (≈ 9.11 µM)	1.56 µg/mL (≈ 9.11 µM)	1.56 µg/mL (≈ 9.11 µM)								
